According to ChEMBL document CHEMBL3509396, “FDA drug approval package for Aspirin (clinical pharmacology review, Ref:ID 3227827)”:

Columns and labels:
[1] = (§1) Mean Tmax of acetylsalicylic acid concentration after administration of Genuine Bayer Aspirin Tablet at fasting condition in human; assay type: ADME, organism-based; parameters: dietary status Fasting, dose 650 mg, dosed compound id 2.46814e+06, dosed compound name Acetylsalicylic acid, regimen Single, route oral, sampling time 24 h, study doses 325/650 mg; conditions: plasma, po, 650 mg
[2] = (§2) Mean AUCinfinity of acetylsalicylic acid concentration after administration of Genuine Bayer Aspirin Tablet at fasting condition in human; assay type: ADME, organism-based; parameters: time infinity, dietary status Fasting, dose 650 mg, dosed compound id 2.46814e+06, dosed compound name Acetylsalicylic acid, regimen Single, route oral, sampling time 24 h, study doses 325/650 mg; conditions: plasma, po, 650 mg, read-out: AUCinfinity (converted)
[3] = as §2; assay type: ADME, organism-based; parameters: time infinity, dietary status Fasting, dose 325 mg, dosed compound id 2.46814e+06, dosed compound name Acetylsalicylic acid, regimen Single, route oral, sampling time 24 h, study doses 325/650 mg; conditions: plasma, po, 325 mg, read-out: AUCinfinity (converted)
[4] = (§3) Mean terminal elimination half-life of acetylsalicylic acid concentration after administration of Genuine Bayer Aspirin Tablet at fasting condition in human; assay type: ADME, organism-based; parameters: dietary status Fasting, dose 325 mg, dosed compound id 2.46814e+06, dosed compound name Acetylsalicylic acid, regimen Single, route oral, sampling time 24 h, study doses 325/650 mg; conditions: plasma, po, 325 mg
[5] = (§4) Mean Cmax of acetylsalicylic acid concentration after administration of Genuine Bayer Aspirin Tablet at fasting condition in human; assay type: ADME, organism-based; parameters: dietary status Fasting, dose 650 mg, dosed compound id 2.46814e+06, dosed compound name Acetylsalicylic acid, regimen Single, route oral, sampling time 24 h, study doses 325/650 mg; conditions: plasma, po, 650 mg
[6] = as §1; assay type: ADME, organism-based; parameters: dietary status Fasting, dose 325 mg, dosed compound id 2.46814e+06, dosed compound name Acetylsalicylic acid, regimen Single, route oral, sampling time 24 h, study doses 325/650 mg; conditions: plasma, po, 325 mg
[7] = as §4; assay type: ADME, organism-based; parameters: dietary status Fasting, dose 325 mg, dosed compound id 2.46814e+06, dosed compound name Acetylsalicylic acid, regimen Single, route oral, sampling time 24 h, study doses 325/650 mg; conditions: plasma, po, 325 mg
[8] = (§5) Mean AUC0-t of acetylsalicylic acid concentration after administration of Genuine Bayer Aspirin Tablet at fasting condition in human; assay type: ADME, organism-based; parameters: dietary status Fasting, dose 650 mg, dosed compound id 2.46814e+06, dosed compound name Acetylsalicylic acid, regimen Single, route oral, sampling time 24 h, study doses 325/650 mg; conditions: plasma, po, 650 mg
[9] = (§6) Mean Tlag of acetylsalicylic acid concentration after administration of Genuine Bayer Aspirin Tablet at fasting condition in human; assay type: ADME, organism-based, Plasma; parameters: dietary status Fasting, dose 325 mg, dosed compound id 2.46814e+06, dosed compound name Acetylsalicylic acid, regimen Single, route oral, sampling time 24 h, study doses 325/650 mg; conditions: in vivo, po
[10] = as §5; assay type: ADME, organism-based; parameters: dietary status Fasting, dose 325 mg, dosed compound id 2.46814e+06, dosed compound name Acetylsalicylic acid, regimen Single, route oral, sampling time 24 h, study doses 325/650 mg; conditions: plasma, po, 325 mg
[11] = as §6; assay type: ADME, organism-based, Plasma; parameters: dietary status Fasting, dose 650 mg, dosed compound id 2.46814e+06, dosed compound name Acetylsalicylic acid, regimen Single, route oral, sampling time 24 h, study doses 325/650 mg; conditions: in vivo, po
[12] = as §3; assay type: ADME, organism-based; parameters: dietary status Fasting, dose 650 mg, dosed compound id 2.46814e+06, dosed compound name Acetylsalicylic acid, regimen Single, route oral, sampling time 24 h, study doses 325/650 mg; conditions: plasma, po, 650 mg

Tmax [1]: 40 min
AUC(0-inf) [2]: 7280 ng·h/mL
AUC(0-inf) [3]: 3830 ng·h/mL
half-life [4]: 31 min
Cmax [5]: 5100 ng/mL
Tmax [6]: 68 min
Cmax [7]: 2590 ng/mL
AUC(0-t) [8]: 6880 ng·h/mL
Tlag [9]: 2 min
AUC(0-t) [10]: 3520 ng·h/mL
Tlag [11]: 1 min
half-life [12]: 55 min
Compound: CC(=O)Oc1ccccc1C(=O)O [ASPIRIN]
